According to the supplement of paper PMC11061612:

What was measured:
Assay in all cases: Bliss excess, mean over the matrix (fraction); higher = more synergy
[1] = system: SK-MG-1 (Low Grade Glioma)
How it was run: (§1)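 Cell lines grown in DMEM/F12 or RPMI with 10% FBS were plated in 1536-well plates and held 24 hours at 37°C, 5% CO2 before 72 hours of exposure to two-drug dose matrices, with DMSO typically at 0.2%. CellTiter-Glo 2.0 luminescence gave viability, which was converted to inhibition. Vehicle wells were set to 0 and blank wells to 1. Combination Emax is the second-highest inhibition in the matrix, and Bliss excess is the observed combination effect minus the expected EA + EB − EA·EB, where EA and EB are the single-agent effects.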

U-2-OS (Osteosarcoma) = system: U-2-OS (Osteosarcoma)
How it was run: as §1

[2] = system: JSC-1 (B-Cell Non-Hodgkin's Lymphoma)
How it was run: as §1

[3] = system: A549 (Lung Adenocarcinoma)
How it was run: as §1

FU97 (Gastric Carcinoma) = system: FU97 (Gastric Carcinoma)
How it was run: as §1

CAS-1 (Glioblastoma) = system: CAS-1 (Glioblastoma)
How it was run: as §1

[4] = system: NCI-H1581 (Non-Small Cell Lung Carcinoma)
How it was run: as §1

Hs-445 (Non-Cancerous) = system: Hs-445 (Non-Cancerous)
How it was run: as §1

[5] = system: NCI-H2141 (Small Cell Lung Carcinoma)
How it was run: as §1

8-MG-BA (Glioblastoma) = system: 8-MG-BA (Glioblastoma)
How it was run: as §1

NY (Osteosarcoma) = system: NY (Osteosarcoma)
How it was run: as §1

[6] = system: CCK-81 (Colorectal Carcinoma)
How it was run: as §1

[7] = system: MDST8 (Colorectal Carcinoma)
How it was run: as §1

[8] = system: TT2609-C02 (Thyroid Gland Carcinoma)
How it was run: as §1

[9] = system: ECC10 (Gastric Carcinoma)
How it was run: as §1

NCI-H2591 (Mesothelioma) = system: NCI-H2591 (Mesothelioma)
How it was run: as §1

[10] = system: TT (Thyroid Gland Carcinoma)
How it was run: as §1

[11] = system: VCaP (Prostate Carcinoma)
How it was run: as §1

[12] = system: A3-KAW (B-Cell Non-Hodgkin's Lymphoma)
How it was run: as §1

[13] = system: HCC1954 (Breast Carcinoma)
How it was run: as §1

Compound	Bliss excess [1]	Bliss excess (U-2-OS (Osteosarcoma))	Bliss excess [2]	Bliss excess [3]	Bliss excess (FU97 (Gastric Carcinoma))	Bliss excess (CAS-1 (Glioblastoma))	Bliss excess [4]	Bliss excess (Hs-445 (Non-Cancerous))	Bliss excess [5]	Bliss excess (8-MG-BA (Glioblastoma))	Bliss excess (NY (Osteosarcoma))	Bliss excess [6]	Bliss excess [7]	Bliss excess [8]	Bliss excess [9]	Bliss excess (NCI-H2591 (Mesothelioma))	Bliss excess [10]	Bliss excess [11]	Bliss excess [12]	Bliss excess [13]
CN(C)CCCOc1ccc(-c2ccc3ncc4c(c3c2)n(C2CCOCC2)c(=O)n4C)cn1 [AZD0156] + C=CCn1c(=O)c2cnc(Nc3ccc(N4CCN(C)CC4)cc3)nc2n1-c1cccc(C(C)(C)O)n1 [AZD1775] (first compound max 1 µM, partner max 1 µM)	0.0174	0.0036	-0.0102	-0.0807	-0.0101	-0.0512	-0.0641	0.0015	-0.0944	-0.0587	-0.0212	-0.0039	-0.0358	-0.0119	-0.0379	-0.0306	-0.0951	-0.0751	0.0707	-0.034
CN(C)CCCOc1ccc(-c2ccc3ncc4c(c3c2)n(C2CCOCC2)c(=O)n4C)cn1 [AZD0156] + CCN(CCO)CCCOc1ccc2c(Nc3cc(CC(=O)Nc4cccc(F)c4)[nH]n3)ncnc2c1 [AZD2811] (first compound max 1 µM, 7x7, partner max 1 µM)	0.0212	-0.0148	0.0161	-0.0431	-0.0947	0.0191	-0.007	0.045	-0.0327	-0.0033	-0.0466	-0.0302	0.0279	-0.0032	-0.0028	-0.0204	-0.0871	-0.0484	0.121	-0.0137
CN(C)CCCOc1ccc(-c2ccc3ncc4c(c3c2)n(C2CCOCC2)c(=O)n4C)cn1 [AZD0156] + C[C@@H]1COCCN1C2=NC(=NC(=C2)C3(CC3)[S@](=N)(=O)C)C4=C5C=CNC5=NC=C4 [AZD6738] (first compound max 1 µM, 7x7, partner max 10 µM)	0.0249	0.0445	0.0233	-0.0652	-0.0353	-0.0046	0.0005	-0.0409	-0.0766	0.0389	-0.0372	-0.0161	0.0296	-0.0067	-0.0104	-0.0461	-0.0583	-0.037	0.0876	0.0016
CN(C)CCCOc1ccc(-c2ccc3ncc4c(c3c2)n(C2CCOCC2)c(=O)n4C)cn1 [AZD0156] + O=C(c1cc(Cc2n[nH]c(=O)c3ccccc23)ccc1F)N1CCN(C(=O)C2CC2)CC1 [Olaparib] (first compound max 3 µM, partner max 3 µM)	0.0333	0.0203	0.171	0.0069	-0.0154	0.0481	0.0465	-0.0211	0.0117	0.079	-0.0279	-0.0131	0.0269	0.0251	0.0522	-0.0248	-0.0297	0.0063	0.276	0.0066
C=CCn1c(=O)c2cnc(Nc3ccc(N4CCN(C)CC4)cc3)nc2n1-c1cccc(C(C)(C)O)n1 [AZD1775] + C1CN(CCC1(C(=O)N[C@@H](CCO)C2=CC=C(C=C2)Cl)N)C3=NC=NC4=C3C=CN4 [Capivasertib] (first compound max 3 µM, partner max 3 µM)	-0.0212	-0.0453	-0.0146	0.015	0.0946	0.0104	0.0271	-0.1	-0.0268	0.0277	-0.0746	-0.0214	-0.0769	0.0087	-0.0156	-0.035	-0.0079	-0.061	0.0032	0.002
C=CCn1c(=O)c2cnc(Nc3ccc(N4CCN(C)CC4)cc3)nc2n1-c1cccc(C(C)(C)O)n1 [AZD1775] + C[C@@H]1COCCN1C2=NC(=NC(=C2)C3(CC3)[S@](=N)(=O)C)C4=C5C=CNC5=NC=C4 [AZD6738] (first compound max 1 µM, partner max 10 µM)	-0.0173	0.0364	0.0409	-0.0313	-0.0414	-0.0535	0.0228	-0.0017	0.0248	-0.032	-0.0386	-0.0359	-0.0161	-0.0026	0.0364	-0.0355	-0.0676	0.006	0.0285	0.111
C=CCn1c(=O)c2cnc(Nc3ccc(N4CCN(C)CC4)cc3)nc2n1-c1cccc(C(C)(C)O)n1 [AZD1775] + O=C(c1cc(Cc2n[nH]c(=O)c3ccccc23)ccc1F)N1CCN(C(=O)C2CC2)CC1 [Olaparib] (first compound max 1 µM, partner max 10 µM)	0.0058	-0.0258	-0.0434	-0.0667	-0.148	-0.0352	-0.0262	0.0156	-0.0638	-0.0163	-0.0731	0.042	-0.0308	-0.0311	-0.019	-0.053	-0.0543	-0.0494	0.0183	-0.0208
CN(CCO)CC[C@H](CSc1ccccc1)Nc1ccc(S(=O)(=O)NC(=O)c2ccc(N3CCC([C@@H](O)c4ccccc4-c4ccc(Cl)cc4)CC3)cc2)cc1S(=O)(=O)C(F)(F)F [AZD4320] + C[C@@H]1COCCN1C2=NC(=NC(=C2)C3(CC3)[S@](=N)(=O)C)C4=C5C=CNC5=NC=C4 [AZD6738] (first compound max 1 µM, 7x7, partner max 10 µM)	0.0076	-0.0394	-0.0276	-0.0778	-0.0215	-0.0307	-0.0837	0.0592		0.0107	0.0125	-0.0546	-0.0578	-0.0542	-0.0256	-0.0462	-0.033	-0.0287	-0.0229	0.0289
COc1nnc2ccc(N3CCC(c4ccc(OCCN5CCN(C)C(=O)[C@H]5C)cc4)CC3)nn12 [AZD5153] + CN(CC[C@H](CSC1=CC=CC=C1)NC2=C(C=C(C=C2)S(=O)(=O)NC(=O)C3=CC=C(C=C3)N4CCC(CC4)[C@H](C5=CC=CC=C5C6=CC=C(C=C6)Cl)O)S(=O)(=O)C(F)(F)F)CCO [AZD4320] (first compound max 1 µM, 7x7, partner max 1 µM)	0.0462	0.0178	-0.0243	-0.0236		0.0455		0.085	0.048	0.002			0.0929	0.0257		0.0088			-0.0232	-0.0119
Cc1c2c(nn1C)CSCc1cc(n(C)n1)CSc1cc(c3ccccc3c1)OCCCc1c(C(=O)O)n(C)c3c-2c(Cl)ccc13 [AZD5991] + CCN(CCO)CCCOc1ccc2c(Nc3cc(CC(=O)Nc4cccc(F)c4)[nH]n3)ncnc2c1 [AZD2811] (first compound max 1 µM, 7x7, partner max 1 µM)	0.0619	0.0091	0.123	-0.0592		0.061	0.108	0.0869	0.0657	0.114	0.0542	0.0227	0.0586	0.0119	0.0058	0.0208	-0.0735	0.08	0.0434	0.105
Cc1c2c(nn1C)CSCc1cc(n(C)n1)CSc1cc(c3ccccc3c1)OCCCc1c(C(=O)O)n(C)c3c-2c(Cl)ccc13 [AZD5991] + C[C@@H]1COCCN1C2=NC(=NC(=C2)C3(CC3)[S@](=N)(=O)C)C4=C5C=CNC5=NC=C4 [AZD6738] (first compound max 1 µM, 7x7, partner max 10 µM)	0.0868	0.0276	0.018	0.0007	-0.0064	0.109	-0.0036	-0.0064	0.0675	0.0326	0.0486	0.0173		0.0043	0.0683	0.023	-0.0066	0.0348	0.0161	0.0518
CC(=O)c1c(C)c2cnc(Nc3ccc(N4CCNCC4)cn3)nc2n(C2CCCC2)c1=O [Palbociclib] + CN(CC[C@H](CSC1=CC=CC=C1)NC2=C(C=C(C=C2)S(=O)(=O)NC(=O)C3=CC=C(C=C3)N4CCC(CC4)[C@H](C5=CC=CC=C5C6=CC=C(C=C6)Cl)O)S(=O)(=O)C(F)(F)F)CCO [AZD4320] (first compound max 10 µM, 7x7, partner max 1 µM)	-0.078	-0.0727	-0.0418	-0.0929		-0.143		0.0465	-0.067	-0.001			-0.0168	-0.0615		-0.0845			0.0082	-0.0722
CCc1c2c(nc3ccc(O)cc13)-c1cc3c(c(=O)n1C2)COC(=O)[C@]3(O)CC [SN-38] + O=C(c1cc(Cc2n[nH]c(=O)c3ccccc23)ccc1F)N1CCN(C(=O)C2CC2)CC1 [Olaparib] (first compound max 0.3 µM, 7x7, partner max 10 µM)	0.0512	0.0159	-0.0044	0.0064	-0.0043	-0.0274	0.0009	0.0811	0.0521	0.0671	0.071	0.0414	-0.0419		0.119	-0.0219	0.0545	0.104		
C[C@@H](c1ccc2nccn2c1)n1nnc2ncc(-c3cnn(C)c3)nc21 [Savolitinib] + CN(CC[C@H](CSC1=CC=CC=C1)NC2=C(C=C(C=C2)S(=O)(=O)NC(=O)C3=CC=C(C=C3)N4CCC(CC4)[C@H](C5=CC=CC=C5C6=CC=C(C=C6)Cl)O)S(=O)(=O)C(F)(F)F)CCO [AZD4320] (first compound max 1 µM, 7x7, partner max 1 µM)	-0.0651	-0.0128	-0.0221	-0.0576		-0.0975		-0.0452	-0.0695	-0.0399			-0.0668	-0.103		-0.0714			-0.0158	-0.0198
CC(=O)Nc1cccc(-n2c(=O)n(C3CC3)c(=O)c3c(Nc4ccc(I)cc4F)n(C)c(=O)c(C)c32)c1 [Trametinib] + Cc1nc(-c2cn3c(n2)-c2ccc(-c4cnn(C(C)(C)C(N)=O)c4)cc2OCC3)n(C(C)C)n1 [Taselisib] (first compound max 1 µM, 7x7, partner max 10 µM)	0.144	0.122	0.218	0.0568		0.0153	0.243	0.119	-0.0299	0.143	0.0847	0.209	-0.0104	0.0909	0.24	0.0206	0.0288	0.0444	0.173	0.0455
